This is an account of results in the Kinase Knowledgebase extract (Sharma et al. 2016).

One may read the IC50 as the concentration needed to halve the response being measured. Low readings indicate greater potency in that assay, high ones weaker potency in that assay.

Molecules are shown by their SMILES. Where “and” joins values, the source holds several entries; their conditions need not be identical. Equal values may be shown once.

One assay relates to MAPK14 (rat). Nature of the assay: Pharmacokinetic Studies.
A further assay addresses MAPK14 (human) (UniProt Q16539). Put plainly: TNF-alpha Inhibition. Conditions: thp1.
The next assay deals with MAPK14 (mouse). Nature of the assay: p38 Inhibition.
The next assay deals with MAPK14 (Balb/c mice). Nature of the assay: TNF-alpha Inhibition (in vivo).
A further assay relates to MAPK14 (Lewis rat). Nature of the assay: p38 Inhibition (SCW-Induced Arthritis Model).

Sequence of MAPK14 (human) (Q16539 whole entry, looked up): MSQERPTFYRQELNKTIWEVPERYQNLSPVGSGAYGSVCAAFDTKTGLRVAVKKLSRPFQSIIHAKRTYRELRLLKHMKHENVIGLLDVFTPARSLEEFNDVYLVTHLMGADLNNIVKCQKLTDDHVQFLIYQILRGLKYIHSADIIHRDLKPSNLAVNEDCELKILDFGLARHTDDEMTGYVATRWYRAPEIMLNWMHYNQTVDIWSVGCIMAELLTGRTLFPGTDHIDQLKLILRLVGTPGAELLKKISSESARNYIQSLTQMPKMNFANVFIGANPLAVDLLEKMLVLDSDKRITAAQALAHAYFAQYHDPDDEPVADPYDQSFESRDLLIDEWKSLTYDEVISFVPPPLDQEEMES

In the assay on MAPK14 (rat), `CC(C)NC(=O)[C@]1(C)CO[C@@H](c2nc(-c3ccc(F)cc3)c(-c3ccnc(NCC4CC4)n3)[nH]2)OC1` showed an AUC of 412 ng·h/mL.

The compound `COCCCNc1nccc(-c2[nH]c([C@H]3OC[C@@](C)(C(=O)NCCOC)CO3)nc2-c2ccc(F)cc2)n1` had an IC50 on MAPK14 (human) of 71 nM. Further, the AUC in the assay with MAPK14 (rat) came to 138 ng·h/mL.

For the compound `CN(C)C(=O)[C@]1(C)CO[C@@H](c2nc(-c3ccc(F)cc3)c(-c3ccnc(NCc4ccccn4)n3)[nH]2)OC1`, the IC50 on MAPK14 (human) was 9 nM. The compound also gave an AUC in the assay with MAPK14 (rat) of 529 ng·h/mL.

At MAPK14 (human), `CCCNC(=O)[C@]1(C)CO[C@@H](c2nc(-c3ccc(F)cc3)c(-c3ccnc(NCc4ccco4)n3)[nH]2)OC1` came in with an IC50 of 3 nM. Moreover, the AUC with MAPK14 (rat) is 257 ng·h/mL.

As to `C[C@]1(C(=O)N2CCOCC2)CO[C@H](c2nc(-c3ccc(F)cc3)c(-c3ccncc3)[nH]2)OC1`, at MAPK14 (mouse), the IC50 stood at 110000 nM. Also, in the assay with MAPK14 (Balb/c mice), the ED50 entry is “Between 3 to 10 mg kg-1”. Moreover, the IC50 on MAPK14 (human) was determined as 60 nM. Also, in the assay with MAPK14 (rat), the AUC was 247 ng·h/mL and 628 ng·h/mL; the Cp is 277 ng/mL.

Regarding `CCCNC(=O)[C@]1(C)CO[C@@H](c2nc(-c3ccc(F)cc3)c(-c3ccnc(NCCCOC)n3)[nH]2)OC1`, the half-maximal inhibitory concentration (IC50) against MAPK14 (human) was 3.5 nM. The AUC with MAPK14 (rat) came to 738 ng·h/mL.

Take `CN1CCN(C(=O)[C@]2(C)CO[C@@H](c3nc(-c4ccc(F)cc4)c(-c4ccnc(NCC5CC5)n4)[nH]3)OC2)CC1`: the concentration for half-maximal inhibition (IC50) against MAPK14 (human) was 2 nM. Further, the AUC with MAPK14 (rat) came to 541 ng·h/mL. In the assay with MAPK14 (rat) (dose or concentration not given here), the bioavailability amounted to 20%. In addition, the score in the assay with MAPK14 (Lewis rat) was 40 and 34 and 25.

For the compound `COCCNc1nccc(-c2[nH]c([C@H]3OC[C@@](C)(C(=O)NCC4CC4)CO3)nc2-c2ccc(F)cc2)n1`, in the assay on MAPK14 (rat), the AUC worked out at 121 ng·h/mL.

Consider `C=CCNc1nccc(-c2[nH]c([C@H]3OC[C@@](C)(C(=O)NCCOC)CO3)nc2-c2ccc(F)cc2)n1`, for which the IC50 against MAPK14 (human) worked out at 73 nM. The AUC with MAPK14 (rat) is 169 ng·h/mL.

`C[C@]1(C(=O)NC2CC2)CO[C@H](c2nc(-c3ccc(F)cc3)c(-c3ccnc(NCC4CC4)n3)[nH]2)OC1`: the AUC with MAPK14 (rat) stood at 288 ng·h/mL.

The compound `C[C@@H]1C[C@H]2[C@@H]3CCC4=CC(=O)C=C[C@]4(C)[C@@]3(F)[C@@H](O)C[C@]2(C)[C@@]1(O)C(=O)CO` yielded a score with MAPK14 (Lewis rat) of 22.5.

On MAPK14 (human), `CN(C)C(=O)[C@]1(C)CO[C@@H](c2nc(-c3ccc(F)cc3)c(-c3ccnc(NCC4CC4)n3)[nH]2)OC1` yielded a concentration for half-maximal inhibition (IC50) of 0.2 nM. In the assay with MAPK14 (rat), this compound showed an AUC of 276 ng·h/mL.
